Measurements published in patent publication US11815435B2, “Beta glucan immunopharmacodynamics” (HiberCell, Inc., priority 2017, dated 2023).

Legend:
[1] = system: neutrophils, monocytes, B cells and subsets of dendritic cells (DC); experiment: In vivo immune cell binding by flow cytometry from whole blood at EOI; parameters: species or system human; details: High-ABA subjects, anti-PGG MAb staining
Procedure: In vivo immune cell binding was assessed by flow cytometry from whole blood of subjects dosed with PGG at the EOI. Gates were set based on BFDPV staining (anti-PGG MAb) on blood cells prior to infusion.

[2] = system: innate immune activation marker genes; experiment: Gene expression in whole blood (Quantigeneplex); type: in vivo, human; details: 3 hr post-infusion vs. pre-dose, no premedications
From the text: Whole blood was collected in PaxGene blood collection tubes (BD Biosciences) at various time points pre- and post-PGG administration. RNA was isolated and assayed by Quantigeneplex (Affymetrix) and the relative fold changes were log 2 transformed. Data presented are from subjects treated with PGG without premedications.

[3] = system: MIP-1b, IP-10, IL-1 RA and I-TAC; experiment: Example 1: cytokine levels in the cancer subject; type: in vivo, human
Procedure: Cytokine levels were also measured during the immunotherapy treatment. […] In addition, less frequent dosing is more convenient and economical for the subject.

Substance: β(1,6)-[poly-(1,3)-D-glucopyranosyl]-poly-β(1,3)-D-glucopyranose [PGG]
- in vivo immune cell binding [1]: bound to neutrophils, monocytes, B cells and subsets of dendritic cells (DC)
- expression of innate immune activation marker genes [2]: consistently increased in subjects with higher levels of ABA
- cytokine levels (MIP-1b, IP-10, IL-1 RA, I-TAC) ([3]; cancer subject after conversion to High-ABA group, IMPRIME PGG 4 mg/kg once every 3 weeks): acute IPD responses were seen
- recurrence of acute IPD responses ([3]; cancer subject, soluble β-glucan administered once every 3 weeks (SC5b-9 and cytokines)): robust, acute IPD responses occurred with each administration
